The supplement of paper PMC11061612

Experiments:
Carboplatin = compound: C1CC(C1)(C(=O)[O-])C(=O)[O-].N.N.[Pt+2] [Carboplatin]; conditions: max 10 µM
Method in brief: (§1)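 Following 24 hours at 37°C and 5% CO2, cancer cell lines in 1536-well plates with 7.5 μl DMEM/F12 or RPMI and 10% FBS were dosed for 72 hours, final DMSO typically being 0.2%. CellTiter-Glo 2.0 luminescence, scaled between blank-well and DMSO-well means, gave the viability readout. Dose responses were fitted to a two-parameter logistic curve with a non-linear mixed effects model, and the single-agent IC50 was derived from this fit.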

AZD5363 = compound: C1CN(CCC1(C(=O)N[C@@H](CCO)C2=CC=C(C=C2)Cl)N)C3=NC=NC4=C3C=CN4 [AZD5363]; conditions: max 10 µM
Method in brief: as §1

AZD1775 = compound: C=CCn1c(=O)c2cnc(Nc3ccc(N4CCN(C)CC4)cc3)nc2n1-c1cccc(C(C)(C)O)n1 [AZD1775]; conditions: max 3 µM
Method in brief: as §1

Trametinib = compound: CC(=O)Nc1cccc(-n2c(=O)n(C3CC3)c(=O)c3c(Nc4ccc(I)cc4F)n(C)c(=O)c(C)c32)c1 [Trametinib]; conditions: max 1 µM
Method in brief: as §1

Paclitaxel = compound: CC(=O)O[C@H]1C(=O)[C@@]2(C)[C@H]([C@H](OC(=O)c3ccccc3)[C@]3(O)C[C@H](OC(=O)[C@H](O)[C@@H](NC(=O)c4ccccc4)c4ccccc4)C(C)=C1C3(C)C)[C@]1(OC(C)=O)CO[C@@H]1C[C@@H]2O [Paclitaxel]; conditions: max 3 µM
Method in brief: as §1

Palbociclib = compound: CC(=O)c1c(C)c2cnc(Nc3ccc(N4CCNCC4)cn3)nc2n(C2CCCC2)c1=O [Palbociclib]; conditions: max 10 µM
Method in brief: as §1

AZD1390 = compound: CC(C)n1c(=O)n(C)c2cnc3cc(F)c(-c4ccc(OCCCN5CCCCC5)nc4)cc3c21 [AZD1390]; conditions: max 0.3 µM
Method in brief: as §1

Venetoclax = compound: CC1(C)CCC(CN2CCN(c3ccc(C(=O)NS(=O)(=O)c4ccc(NCC5CCOCC5)c([N+](=O)[O-])c4)c(Oc4cnc5[nH]ccc5c4)c3)CC2)=C(c2ccc(Cl)cc2)C1 [Venetoclax]; conditions: max 1 µM
Method in brief: as §1

Dasatinib = compound: CC1=C(C(=CC=C1)Cl)NC(=O)C2=CN=C(S2)NC3=CC(=NC(=N3)C)N4CCN(CC4)CCO [Dasatinib]; conditions: max 2 µM
Method in brief: as §1

SG3199 = compound: CC1=CN2[C@@H](C1)C=NC3=CC(=C(C=C3C2=O)OC)OCCCCCOC4=C(C=C5C(=C4)N=C[C@@H]6CC(=CN6C5=O)C)OC [SG3199]; conditions: max 0.001 µM
Method in brief: as §1

AZD2811 = compound: CCN(CCO)CCCOc1ccc2c(Nc3cc(CC(=O)Nc4cccc(F)c4)[nH]n3)ncnc2c1 [AZD2811]; conditions: max 1 µM
Method in brief: as §1

SN-38 = compound: CCc1c2c(nc3ccc(O)cc13)-c1cc3c(c(=O)n1C2)COC(=O)[C@]3(O)CC [SN-38]; conditions: max 0.3 µM
Method in brief: as §1

AZD0156 = compound: CN(C)CCCOc1ccc(-c2ccc3ncc4c(c3c2)n(C2CCOCC2)c(=O)n4C)cn1 [AZD0156]; conditions: max 3 µM
Method in brief: as §1

AZD4320 = compound: CN(CC[C@H](CSC1=CC=CC=C1)NC2=C(C=C(C=C2)S(=O)(=O)NC(=O)C3=CC=C(C=C3)N4CCC(CC4)[C@H](C5=CC=CC=C5C6=CC=C(C=C6)Cl)O)S(=O)(=O)C(F)(F)F)CCO [AZD4320]; conditions: max 1 µM
Method in brief: as §1

Alisertib = compound: COc1cc(Nc2ncc3c(n2)-c2ccc(Cl)cc2C(c2c(F)cccc2OC)=NC3)ccc1C(=O)O [Alisertib]; conditions: max 10 µM
Method in brief: as §1

Etoposide = compound: COc1cc([C@@H]2c3cc4c(cc3[C@@H](O[C@@H]3O[C@@H]5CO[C@@H](C)O[C@H]5[C@H](O)[C@H]3O)[C@H]3COC(=O)[C@H]23)OCO4)cc(OC)c1O [Etoposide]; conditions: max 10 µM
Method in brief: as §1

Gefitinib = compound: COc1cc2ncnc(Nc3ccc(F)c(Cl)c3)c2cc1OCCCN1CCOCC1 [Gefitinib]; conditions: max 10 µM
Method in brief: as §1

Prexasertib = compound: COc1cccc(OCCCN)c1-c1cc(Nc2cnc(C#N)cn2)n[nH]1 [Prexasertib]; conditions: max 1 µM
Method in brief: as §1

Doxorubicin = compound: COc1cccc2c1C(=O)c1c(O)c3c(c(O)c1C2=O)C[C@@](O)(C(=O)CO)C[C@@H]3O[C@H]1C[C@H](N)[C@H](O)[C@H](C)O1 [Doxorubicin]; conditions: max 1 µM
Method in brief: as §1

AZD5153 = compound: COc1nnc2ccc(N3CCC(c4ccc(OCCN5CCN(C)C(=O)[C@H]5C)cc4)CC3)nn12 [AZD5153]; conditions: max 1 µM
Method in brief: as §1

Lapatinib = compound: CS(=O)(=O)CCNCc1ccc(-c2ccc3ncnc(Nc4ccc(OCc5cccc(F)c5)c(Cl)c4)c3c2)o1 [Lapatinib]; conditions: max 10 µM
Method in brief: as §1

AZD8186 = compound: C[C@@H](Nc1cc(F)cc(F)c1)c1cc(C(=O)N(C)C)cc2c(=O)cc(N3CCOCC3)oc12 [AZD8186]; conditions: max 10 µM
Method in brief: as §1

Crizotinib = compound: C[C@@H](Oc1cc(-c2cnn(C3CCNCC3)c2)cnc1N)c1c(Cl)ccc(F)c1Cl [Crizotinib]; conditions: max 10 µM
Method in brief: as §1

Savolitinib = compound: C[C@@H](c1ccc2nccn2c1)n1nnc2ncc(-c3cnn(C)c3)nc21 [Savolitinib]; conditions: max 1 µM
Method in brief: as §1

AZD6738 = compound: C[C@@H]1COCCN1C2=NC(=NC(=C2)C3(CC3)[S@](=N)(=O)C)C4=C5C=CNC5=NC=C4 [AZD6738]; conditions: max 10 µM
Method in brief: as §1

AZD5991 = compound: Cc1c2c(nn1C)CSCc1cc(n(C)n1)CSc1cc(c3ccccc3c1)OCCCc1c(C(=O)O)n(C)c3c-2c(Cl)ccc13 [AZD5991]; conditions: max 1 µM
Method in brief: as §1

AZD7648 = compound: Cc1cc2ncnn2cc1Nc1ncc2c(n1)n(C1CCOCC1)c(=O)n2C [AZD7648]; conditions: max 10 µM
Method in brief: as §1

Taselisib = compound: Cc1nc(-c2cn3c(n2)-c2ccc(-c4cnn(C(C)(C)C(N)=O)c4)cc2OCC3)n(C(C)C)n1 [Taselisib]; conditions: max 10 µM
Method in brief: as §1

Selumetinib = compound: Cn1cnc2c(F)c(Nc3ccc(Br)cc3Cl)c(C(=O)NOCCO)cc21 [Selumetinib]; conditions: max 10 µM
Method in brief: as §1

SRA737 = compound: N#Cc1cnc(Nc2cc(NC[C@H]3CNCCO3)c(C(F)(F)F)cn2)cn1 [SRA737]; conditions: max 10 µM
Method in brief: as §1

MK-2206 = compound: NC1(c2ccc(-c3nc4ccn5c(=O)[nH]nc5c4cc3-c3ccccc3)cc2)CCC1 [MK-2206]; conditions: max 10 µM
Method in brief: as §1

Gemcitabine = compound: Nc1ccn([C@@H]2O[C@H](CO)[C@@H](O)C2(F)F)c(=O)n1 [Gemcitabine]; conditions: max 0.3 µM
Method in brief: as §1

[1] = compound: O=C(Nc1ccc2[nH]nc(-c3ccncc3)c2c1)[C@@H]1CCN(CC(=O)N2CCN(c3ccc(-c4ncccn4)cc3)CC2)C1; conditions: max 5 µM
Method in brief: as §1

Olaparib = compound: O=C(c1cc(Cc2n[nH]c(=O)c3ccccc23)ccc1F)N1CCN(C(=O)C2CC2)CC1 [Olaparib]; conditions: max 10 µM
Method in brief: as §1

5-Fluorouracil = compound: O=c1[nH]cc(F)c(=O)[nH]1 [5-Fluorouracil]; conditions: max 20 µM
Method in brief: as §1

Cell Line	IC50, cell viability 72 h (Carboplatin) [nM]	IC50, cell viability 72 h (AZD5363) [nM]	IC50, cell viability 72 h (AZD1775) [nM]	IC50, cell viability 72 h (Trametinib) [nM]	IC50, cell viability 72 h (Paclitaxel) [nM]	IC50, cell viability 72 h (Palbociclib) [nM]	IC50, cell viability 72 h (AZD1390) [nM]	IC50, cell viability 72 h (Venetoclax) [nM]	IC50, cell viability 72 h (Dasatinib) [nM]	IC50, cell viability 72 h (SG3199) [nM]	IC50, cell viability 72 h (AZD2811) [nM]	IC50, cell viability 72 h (SN-38) [nM]	IC50, cell viability 72 h (AZD0156) [nM]	IC50, cell viability 72 h (AZD4320) [nM]	IC50, cell viability 72 h (Alisertib) [nM]	IC50, cell viability 72 h (Etoposide) [nM]	IC50, cell viability 72 h (Gefitinib) [nM]	IC50, cell viability 72 h (Prexasertib) [nM]	IC50, cell viability 72 h (Doxorubicin) [nM]	IC50, cell viability 72 h (AZD5153) [nM]	IC50, cell viability 72 h (Lapatinib) [nM]	IC50, cell viability 72 h (AZD8186) [nM]	IC50, cell viability 72 h (Crizotinib) [nM]	IC50, cell viability 72 h (Savolitinib) [nM]	IC50, cell viability 72 h (AZD6738) [nM]	IC50, cell viability 72 h (AZD5991) [nM]	IC50, cell viability 72 h (AZD7648) [nM]	IC50, cell viability 72 h (Taselisib) [nM]	IC50, cell viability 72 h (Selumetinib) [nM]	IC50, cell viability 72 h (SRA737) [nM]	IC50, cell viability 72 h (MK-2206) [nM]	IC50, cell viability 72 h (Gemcitabine) [nM]	IC50, cell viability 72 h [1] [nM]	IC50, cell viability 72 h (Olaparib) [nM]	IC50, cell viability 72 h (5-Fluorouracil) [nM]
CPC-N (Small Cell Lung Carcinoma)	> 10000	> 10000	297	> 1000	21.1	> 10000	> 300	721	> 2000	> 1	59.8	> 300	> 3000	178	670	5130	> 10000	4.03	887	774	> 10000	> 10000	6990	> 1000	2130	> 1000	> 10000	8220	> 10000	1760	> 10000	144	> 5000	> 10000	> 20000
SK-N-SH (Neuroblastoma)	> 10000	> 10000	1440	> 1000	77.4	> 10000	> 300	> 1000	> 2000	> 1	> 1000	2.92	> 3000	794	59.3	667	> 10000	26.5	66.9	> 1000	> 10000	> 10000	2410	> 1000	2260	> 1000	> 10000	1520	> 10000	> 10000	> 10000	58.5	> 5000	> 10000	> 20000
SKG-IIIa (Cervical Carcinoma)	> 10000	> 10000	> 3000	> 1000	854	> 10000	> 300	> 1000	> 2000	> 1	> 1000	> 300	> 3000	> 1000	> 10000	> 10000	> 10000	> 1000	> 1000	> 1000	> 10000	> 10000	> 10000	> 1000	> 10000	> 1000	> 10000	> 10000	> 10000	> 10000	> 10000	> 300	> 5000	> 10000	> 20000
MS-1 (Small Cell Lung Carcinoma)	> 10000	> 10000	531	> 1000	104	> 10000	> 300	> 1000	> 2000	> 1	> 1000	57.7	> 3000	> 1000	> 10000	7200	> 10000	22	244	120	> 10000	> 10000	6280	> 1000	4380	> 1000	> 10000	> 10000	> 10000	9420	> 10000	197	> 5000	> 10000	> 20000
NCI-H3118 (Head and Neck Carcinoma)	> 10000	> 10000	191	120	15	> 10000	> 300	> 1000	309	> 1	> 1000	277	> 3000	> 1000	> 10000	5670	1970	39.3	> 1000	684	4490	> 10000	> 10000	> 1000	> 10000	> 1000	> 10000	1060	3090	> 10000	> 10000	64.1	912	> 10000	> 20000
